# What was measured:
# [1] = tested on: 4T1 mouse breast tumor cells; assay: Boyden chamber cell migration assay with 4T1 tumor cells; format: cell-based; conditions: chamber cell migration, 6-8 h; average of three experiments; read-out: IC50 (4T1 tumor cells)
# Experimental: The biological evaluation of the compounds (in terms of their ability to inhibit cell migration) was accomplished in a Boyden chamber cell migration assay. In this assay, mouse breast tumor cells (4T1 cells) or endothelial cells (HUVECs) are seeded on the upper chamber of a transwell insert. Growth factor-containing serum is added to the lower chamber.
# Chamber Cell Migration Assay (Tables 4 and 6): Cell migrations were assayed with Boyden chambers [8.0 μm pore size, polyethylene terephthalate membrane, FALCON cell culture insert (Becton-Dickinson)]. 4T1 mouse breast tumor cells or HUVECs were trypsinized and counted. 300 μl of 5-10×10^4 cells in serum-free medium was added to the upper chamber and 500 μl of medium with 10% fetal bovine serum (FBS) was added to the lower chamber. […] Cells on the inside of the transwell inserts were removed with a cotton swab, and cells on the underside of the insert were fixed and stained. Photographs of three random regions were taken and the number of cells was counted to calculate the average number of cells that have transmigrated.
# [2] = tested on: HUVECs (human umbilical vein endothelial cells); assay: Boyden chamber cell migration assay with HUVECs; format: cell-based; conditions: chamber cell migration; average of three experiments; read-out: IC50 (HUVEC)
# Experimental: Chamber Cell Migration Assay (Tables 4 and 6): Cell migrations were assayed with Boyden chambers [8.0 μm pore size, polyethylene terephthalate membrane, FALCON cell culture insert (Becton-Dickinson)]. 4T1 mouse breast tumor cells or HUVECs were trypsinized and counted. 300 μl of 5-10×10^4 cells in serum-free medium was added to the upper chamber and 500 μl of medium with 10% fetal bovine serum (FBS) was added to the lower chamber. The transwells were incubated for 6-8 h at 37° C. with different concentrations of chemical compound in both upper and lower chamber. Cells on the inside of the transwell inserts were removed with a cotton swab, and cells on the underside of the insert were fixed and stained. Photographs of three random regions were taken and the number of cells was counted to calculate the average number of cells that have transmigrated.
# [3] = tested on: 4T1 tumor lung metastasis; assay: 4T1 tumor lung metastasis in syngeneic mice (6-thioguanine clonogenic assay); format: in vivo, BALB/c mice; conditions: for lung metastasis colonies: lungs Day 28, mean and standard deviation
# Excerpt: Inhibition of metastasis of mouse breast tumors by migrastatin alogs in mice. 4T1 mouse breast tumor cell line was isolated from a single spontaneously arising mammary tumor from a BALB/BfC3H mouse (MMTV+).^62 The 4T1 tumor closely mimics human breast cancer in its anatomical site, immunogenecity, growth characteristics, and metastatic properties.^63 From the mammary gland, 4T1 tumor spontaneously metastasizes to a variety of target organs including the lung, bone, brain, and liver through primarily a hematogenous rout.^64
# To assess the efficacy of therapeutic application of migrastatin analogs in the 4T1 murine mammary carcinoma models, we administered migrastatin analogs (macroketone and macrolactam) to BALB/c mice carrying the 4T1 tumors.
# (§1) Female BALB/c mice (6-8 week old) were purchased from the Jackson Laboratory (Bar Harbor, Me.). All mice were housed at the Weill Medical College of Cornell University Animal Facilities in accordance with the Principles of Animal Care (NIH publication no. 85-23, revised 1985). 4T1 tumor cells (1×10^5) were injected subcutaneously into the abdominal mammary gland area of mice in 0.1 ml of a single-cell suspension in phosphate buffered saline (PBS) on Day 0. The dosage of tumor implantation was empirically determined to give rise to tumor of ˜10 mm in diameter in untreated wild type mice in 21-23 days. On Day 7, when the tumors averaged in size ˜4-5 mm in diameter, migrastatin analogs or control PBS saline were given every day by intraperitoneal injection at 10 mg/kg or 20 mg/kg per mouse until Day 25. On Day 28, the mice were sacrificed. This regiment of migrastatin analogs was well tolerated with no signs of overt toxicity. Every group included five mice. Primary tumors were measured using electronic calipers on the day when the mice were sacrificed. Tumor size was the square root of the product of two perpendicular diameters. Numbers of metastatic 4T1 cells in lung were determined by the clonogenic assay.^63 In brief, lungs were removed from each mouse on Day 28, finely minced and digested in 5 ml of enzyme cocktail containing 1× PBS and 1 mg/ml collagenase type IV for 2 hours at 37° C. on a platform rocker. After incubation, samples were filtered through 70 uM nylon cell strainers and washed twice with PBS. Resulting cells were suspended and plated serially diluted in 10 cm tissue culture dishes in medium RPMI1640 containing 60 uM thioguanine for clonogenic growth. 6-Thioguanine-resistant tumor cells formed foci after 14 days, at which time they were fixed with methanol and stained with 0.03% methylene blue for counting.
# Treatment 4T1 tumor lung metaotmis in smgencie mice with Kigrastatin analogs (See, FIG. 4). 4T1 tumor cells (10^5) were injected s.c. in the abdominal mammary gland with 0.1 ml of a single-cell suspension. Macroketone or macrolactam at 10 mg/kg or 20 mg/kg was given i.p. on Day 7 when the tumor size was about 5 mm in diameter, and everyday until Day 25. On Day 28, the mice were sacrificed. Each group comprised five mice. Lung metastasis was measured by the 6-thiogunine clonogenic assay. The mean and standard deviation are presented. In the control group (daily PBS injection), there were 61300±18900 colonies.
# 4T1 tumors = assay: Effect on 4T1 primary tumor growth in mice; format: in vivo, BALB/c mice; conditions: 10 mg/kg i.p. daily Day 7-25; tumors measured Day 28
# Experimental: as §1, with “This regiment of migrastatin analogs was well tolerated with no signs of overt toxicity. Every group included five mice.” left out, “Tumor size was the square root of the product of two perpendicular diameters.” left out, “After incubation, samples were filtered through 70 uM nylon cell strainers and washed twice with PBS. Resulting cells were suspended and plated serially diluted in 10 cm tissue culture dishes in medium RPMI1640 containing 60 uM thioguanine for clonogenic growth. 6-Thioguanine-resistant tumor cells formed foci after 14 days, at which time they were fixed with methanol and stained with 0.03% methylene blue for counting.” left out
# Effect of migrastatin analogs on 4T1 tumor cell growth (See, FIG. 5). […] On Day 28, primary tumors were measured using electronic calipers. […]
# [4] = Mouse plasma stability study (HPLC); format: in vitro ADME
# Experimental: Mouse Plasma Stability Studies (Table 5): HPLC conditions: The sample is injected and separated using an Inertsil ODS3 6u 3×150 mm column with a mobile phase of MeCN and water (50% for migrastatin) at a flow of 0.4 mL/min, monitored at 220 nm at 0.02 AUFS (the retention time for migrastatin is ca. 4 min, the identity of this peak was confirmed by mass spectral analysis). Incubation and sample preparation conditions: A solution (ca. 30 mM) of chemical compound (Table 5) in DMSO is prepared. 2 μL of the solution is added to a mixture containing 200 μL of mouse plasma and 800 μL of PBS. The resulting solution is put into a water bath at 37° C., and 100 μL of sample is withdrawn at 10, 20, 30, 45, and 60 min. The precipitate is removed by centrifugation and 20 μL of the supernatant is injected onto the HPLC.
# [5] = tested on: 4T1 mouse breast tumor cells; assay: Wound-healing assay with 4T1 cells (FIG. 6); format: cell-based; conditions: with serum; 200 μM; overnight
# Excerpt: In the wound healing assay, standard scratches (i.e., wounds) were made through a confluent 4T1 cell layer. In the absence of serum, cells would not migrate across the empty space created by application of the scratch. Upon addition of serum containing migration-enabling factors, migration of 4T1 cells across the scratch was induced. Exposure to these cells to inventive compounds allowed the evaluation of the cell migration inhibitory activity of these compounds.
# Wound-Healing Assay (See FIG. 6). 4T1 mouse breast tumor cells in RPMI-1640 medium containing 10% fetal bovine serum (FBS) were seeded into wells of 24-multiwell plates (Becton-Dickinson). After cells grew to confluence, wounds were made with sterile pipette tips. Cells were washed with Phosphate Buffered Saline (PBS) and refreshed with growth medium containing different concentrations of chemical compounds. After overnight incubation at 37° C., cells were fixed and photographed.
# 4T1 tumor cells = assay: Cell proliferation assay (MTT); conditions: MTT, 48 h; up to 20 μM
# Experimental: Cell Proliferation Assay: 4×10^4 of 4T1 tumor cells in RPMI-1640 medium containing 10% FBS were seeded into wells of 96-multiwell plates (Becton-Dickinson) in the presence or absence of chemical compounds and then incubated at 37° C. for 48 h. An MTT kit (Cell Proliferation Kit I, Roche) (a colorimetric assay) was used to quantify cell proliferation and viability. The number of living cells, thus the total metabolic activity, directly correlates to the amount of purple formazan crystals formed (monitored by the absorbance).
SMILES,IC50 [1] [nM],IC50 [2] [nM],inhibition of lung metastasis ([3]; 10 mg/kg i.p. daily Day 7-25) [%],lung metastasis colonies ([3]; 10 mg/kg i.p. daily Day 7-25) [colonies],inhibition of lung metastasis ([3]; 20 mg/kg i.p. daily Day 7-25) [%],lung metastasis colonies ([3]; 20 mg/kg i.p. daily Day 7-25) [colonies],"effect on growth of 4T1 primary tumors, in words (4T1 tumors)","stability (t1/2, mouse plasma) ([4]; mouse plasma/PBS, 37° C., sampled up to 60 min) [min]","stability (mouse plasma), in words ([4]; stable = intensity of HPLC signal unchanged over 60 min of incubation)","inhibition of 4T1 cell migration across the scratch, in words [5]","cytotoxic or anti-proliferative effects on 4T1 cells, in words (4T1 tumor cells)"
"COC1C=CCCCCC(=O)CCC(C)=CC(C)C1O (stereo not shown) [macroketone (60), Macroketone]",100,12000,~94,3875±2525,~99,650±575,minor effect on tumor growth,,,,
"COC1C=CCCCCC(=O)OCC(C)=CC(C)C1O (stereo not shown) [macrolactone (48), Macrolactone]",24,125,,,,,,<5,hydrolyzed rapidly,almost completely inhibited cell migration across the scratch,did not have any cytotoxic or anti-proliferative effects up to 20 μM
